Source: patent publication US11548888B2, “KRas G12C inhibitors” (Mirati Therapeutics, Inc., priority 2019, dated 2023)

Molecular target: T1, KRas G12C (Homo sapiens, UniProt P01116, G12C)
T1 construct: NCI-H358 cells (ATCC CRL-5807) express KRas G12C
Experiment: Inhibition of KRas G12C-dependent cell growth: Phospho-ERK in NCI-H358 cells
Assay type: cell-based
Details: NCI-H358 cells expressing KRas G12C; Phospho-ERK (Thr202/Tyr204) normalized to GAPDH; 3 hours compound; 4 parameter fit
Procedure: The cellular inhibition of KRAs G12C by exemplary compounds of the present invention was determined by measuring the amount of a downstream marker of KRas activity, phosphorylated ERK (“Phospho-ERK”).
NCI-H358 cells (ATCC CRL-5807) express KRas G12C and were grown in RPMI medium supplemented with 10% fetal bovine serum, penicillin/streptomycin and 10 mM HEPES. Cells were plated in poly-D-Lysine coated 96-well plates at a concentration of 50,000 cells/well and allowed to attach for 8-12 hours. Diluted compounds were then added at a final concentration of 0.5% DMSO. After 3 hours, the medium was removed, 150 μL of 4% formaldehyde was added and the plates were incubated for 20 minutes. The plates were washed with PBS, and permeabilized using 150 μL of ice cold 100% methanol for 10 minutes. Non-specific antibody binding to the plates was blocked using 100 μL Licor Blocking Buffer (Li-Cor Biotechnology, Lincoln Nebr.) for 1 hour at room temperature. Positive control samples and samples lacking cells were parallel processed with test samples as standards.
The amount Phospho-ERK was determined using an antibody specific for the phosphorylated form of ERK and compared to the amount of GAPDH. Primary antibodies used for detection were added as follows: Phospho-ERK (Cell Signaling cs9101) diluted 1:500 and GAPDH (Millipore MAB374) diluted 1:5000 in Licor block+0.05% Tween 20. The plates were incubated for 2 hours at room temperature. The plates were washed with PBS+0.05% Tween 20.
Secondary antibodies used to visualize primary antibodies were added as follows: Anti-rabbit-680 diluted 1:1000 and Anti-mouse-800 diluted 1:1000 in Licor Block+0.05% Tween 20 and incubated for 1 hour at room temperature. The plates were washed with PBS+0.05% Tween 20. A 100 μL aliquot of PBS was added to each well and the plates were read on a LICOR AERIUS plate reader.
The pERK(Thr202/Tyr204) signal was normalized with the GAPDH signal and percent of DMSO control values were calculated. IC50 values were generated using a 4 parameter fit of the dose response curve.

T1 sequence (P01116 1-188 isoform P01116-2 G12C): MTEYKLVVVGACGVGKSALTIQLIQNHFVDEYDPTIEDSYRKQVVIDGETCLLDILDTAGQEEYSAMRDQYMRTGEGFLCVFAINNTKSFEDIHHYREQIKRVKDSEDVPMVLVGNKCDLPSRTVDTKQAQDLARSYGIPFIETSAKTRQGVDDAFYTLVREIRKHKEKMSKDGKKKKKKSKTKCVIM

C=C(F)C(=O)N1CCN(c2nc(OC[C@@H]3C[C@@H](OC)CN3C)nc3c(F)c(-c4cccc5cccc(Cl)c45)ncc23)C[C@@H]1CC#N [Example 22, 2-[(2S)-4-[7-(8-chloro-1-naphthyl)-8-fluoro-2-[[(2S,4R)-4-methoxy-1-methyl-pyrrolidin-2-yl]methoxy]pyrido[4,3-d]pyrimidin-4-yl]-1-(2-fluoroprop-2-enoyl)piperazin-2-yl]acetonitrile]
IC50: 38 nM

CN1CCC[C@H]1COc1nc(N2CCN(C(=O)/C=C/CF)[C@@H](CC#N)C2)c2cnc(-c3cccc4cccc(Cl)c34)c(F)c2n1 [Example 23, 2-((S)-4-(7-(8-chloronaphthalen-1-yl)-8-fluoro-2-(((S)-1-methylpyrrolidin-2-yl)methoxy)pyrido[4,3-d]pyrimidin-4-yl)-1-((E)-4-fluorobut-2-enoyl)piperazin-2-yl)acetonitrile]
IC50: 18 nM

Cc1cccc2cccc(-c3ncc4c(N5CCN(C(=O)/C=C/CF)[C@@H](CC#N)C5)nc(OC[C@@H]5CC(F)(F)CN5C)nc4c3F)c12 [Example 24, 2-((S)-4-(2-(((S)-4,4-difluoro-1-methylpyrrolidin-2-yl)methoxy)-8-fluoro-7-(8-methylnaphthalen-1-yl)pyrido[4,3-d]pyrimidin-4-yl)-1-((E)-4-fluorobut-2-enoyl)piperazin-2-yl)acetonitrile]
IC50: 109 nM

CN1CC(F)(F)C[C@H]1COc1nc(N2CCN(C(=O)/C=C/CF)[C@@H](CC#N)C2)c2cnc(-c3cccc4cccc(Cl)c34)c(F)c2n1 [Example 25, 2-((S)-4-(7-(8-chloronaphthalen-1-yl)-2-(((S)-4,4-difluoro-1-methylpyrrolidin-2-yl)methoxy)-8-fluoropyrido[4,3-d]pyrimidin-4-yl)-1-((E)-4-fluorobut-2-enoyl)piperazin-2-yl)acetonitrile]
IC50: 13 nM

CO[C@@H]1C[C@@H](COc2nc(N3CCN(C(=O)/C=C/CF)[C@@H](CC#N)C3)c3cnc(-c4cccc5cccc(C)c45)c(F)c3n2)N(C)C1 [Example 26, 2-[(2S)-1-[(E)-4-fluorobut-2-enoyl]-4-[8-fluoro-2-[[(2S,4R)-4-methoxy-1-methyl-pyrrolidin-2-yl]methoxy]-7-(8-methyl-1-naphthyl)pyrido[4,3-d]pyrimidin-4-yl]piperazin-2-yl]acetonitrile]
IC50: 55 nM

CO[C@@H]1C[C@@H](COc2nc(N3CCN(C(=O)/C=C/CF)[C@@H](CC#N)C3)c3cnc(-c4cccc5cccc(Cl)c45)c(F)c3n2)N(C)C1 [Example 27, 2-[(2S)-4-[7-(8-chloro-1-naphthyl)-8-fluoro-2-[[(2S,4R)-4-methoxy-1-methyl-pyrrolidin-2-yl]methoxy]pyrido[4,3-d]pyrimidin-4-yl]-1-[(E)-4-fluorobut-2-enoyl]piperazin-2-yl]acetonitrile]
IC50: 30 nM

C=C(F)C(=O)N1CCN(c2nc(OCCCN3C[C@@H]4C[C@H]3CO4)nc3c(F)c(-c4cccc5cccc(C)c45)ncc23)C[C@@H]1CC#N [Example 28, 2-[(2S)-4-[8-fluoro-7-(8-methyl-1-naphthyl)-2-[3-[(1S,4S)-2-oxa-5-azabicyclo[2.2.1]heptan-5-yl]propoxy]pyrido[4,3-d]pyrimidin-4-yl]-1-(2-fluoroprop-2-enoyl)piperazin-2-yl]acetonitrile]
IC50: 260 nM

C=C(F)C(=O)N1CCN(c2nc(OCCCN3C[C@@H]4C[C@H]3CO4)nc3c(F)c(-c4cccc5cccc(Cl)c45)ncc23)C[C@@H]1CC#N [Example 29, 2-[(2S)-4-[7-(8-chloro-1-naphthyl)-8-fluoro-2-[3-[(1S,4S)-2-oxa-5-azabicyclo[2.2.1]heptan-5-yl]propoxy]pyrido[4,3-d]pyrimidin-4-yl]-1-(2-fluoroprop-2-enoyl)piperazin-2-yl]acetonitrile]
IC50: 85 nM

Cc1cccc2cccc(-c3ncc4c(N5CCN(C(=O)/C=C/CF)[C@@H](CC#N)C5)nc(OCCCN5C[C@@H]6C[C@H]5CO6)nc4c3F)c12 [Example 30, 2-[(2S)-1-[(E)-4-fluorobut-2-enoyl]-4-[8-fluoro-7-(8-methyl-1-naphthyl)-2-[3-[(1S,4S)-2-oxa-5-azabicyclo[2.2.1]heptan-5-yl]propoxy]pyrido[4,3-d]pyrimidin-4-yl]piperazin-2-yl]acetonitrile]
IC50: 131 nM

N#CC[C@H]1CN(c2nc(OCCCN3C[C@@H]4C[C@H]3CO4)nc3c(F)c(-c4cccc5cccc(Cl)c45)ncc23)CCN1C(=O)/C=C/CF [Example 31, 2-[(2S)-4-[7-(8-chloro-1-naphthyl)-8-fluoro-2-[3-[(1S,4S)-2-oxa-5-azabicyclo[2.2.1]heptan-5-yl]propoxy]pyrido[4,3-d]pyrimidin-4-yl]-1-[(E)-4-fluorobut-2-enoyl]piperazin-2-yl]acetonitrile]
IC50: 33 nM

C=C(F)C(=O)N1CCN(c2nc(OC[C@@H]3CCCN3C)nc3c(Cl)c(-c4cccc5cccc(C)c45)ncc23)C[C@@H]1CC#N [Example 32, 2-[(2S)-4-[8-chloro-7-(8-methyl-1-naphthyl)-2-[[(2S)-1-methylpyrrolidin-2-yl]methoxy]pyrido[4,3-d]pyrimidin-4-yl]-1-(2-fluoroprop-2-enoyl)piperazin-2-yl]acetonitrile]
IC50: 137 nM

C=C(F)C(=O)N1CCN(c2nc(OC[C@@H]3CCCN3C)nc3c(C)c(-c4cccc5cccc(C)c45)ncc23)C[C@@H]1CC#N [Example 33, 2-[(2S)-1-(2-fluoroprop-2-enoyl)-4-[8-methyl-7-(8-methyl-1-naphthyl)-2-[[(2S)-1-methylpyrrolidin-2-yl]methoxy]pyrido[4,3-d]pyrimidin-4-yl]piperazin-2-yl]acetonitrile]
IC50: 79 nM

C=C(F)C(=O)N1CCN(c2nc(OC[C@@H]3C[C@@H](OC)CN3C)nc3c(F)c(-c4cncc5cccc(C)c45)ncc23)C[C@@H]1CC#N [Example 34, 2-[(2S)-4-[8-fluoro-2-[[(2S,4R)-4-methoxy-1-methyl-pyrrolidin-2-yl]methoxy]-7-(5-methyl-4-isoquinolyl)pyrido[4,3-d]pyrimidin-4-yl]-1-(2-fluoroprop-2-enoyl)piperazin-2-yl]acetonitrile]
IC50: 45 nM

C=C(F)C(=O)N1CCN(c2nc(OC[C@H]3CCCN3C)nc3c(F)c(-c4cccc5cccc(Cl)c45)ncc23)C[C@@H]1CC#N [Example 35, 2-[(2S)-4-[7-(8-chloro-1-naphthyl)-8-fluoro-2-[[(2R)-1-methylpyrrolidin-2-yl]methoxy]pyrido[4,3-d]pyrimidin-4-yl]-1-(2-fluoroprop-2-enoyl)piperazin-2-yl]acetonitrile]
IC50: 27 nM

CO[C@@H]1C[C@@H](COc2nc(N3CCN(C(=O)/C=C/CF)[C@@H](CC#N)C3)c3cnc(-c4cncc5cccc(C)c45)c(F)c3n2)N(C)C1 [Example 36, 2-[(2S)-1-[(E)-4-fluorobut-2-enoyl]-4-[8-fluoro-2-[[(2S,4R)-4-methoxy-1-methyl-pyrrolidin-2-yl]methoxy]-7-(5-methyl-4-isoquinolyl)pyrido[4,3-d]pyrimidin-4-yl]piperazin-2-yl]acetonitrile]
IC50: 44 nM

C=C(F)C(=O)N1CCN(c2nc(OCCCN3C[C@@H]4C[C@H]3CO4)nc3c(F)c(-c4cncc5cccc(Cl)c45)ncc23)C[C@@H]1CC#N [Example 37, 2-[(2S)-4-[7-(5-chloro-4-isoquinolyl)-8-fluoro-2-[3-[(1S,4S)-2-oxa-5-azabicyclo[2.2.1]heptan-5-yl]propoxy]pyrido[4,3-d]pyrimidin-4-yl]-1-(2-fluoroprop-2-enoyl)piperazin-2-yl]acetonitrile]
IC50: 168 nM
